Results from ChEMBL document CHEMBL4421722, “Inhibitors of protein prenyltransferases” (2013).

Experiments:
[1] = species: Rattus norvegicus; assay: Inhibition of rat recombinant geranylgeranyltransferase type I expressed in Escherichia coli assessed as residual enzyme activity for geranylgeranylation of K-Ras4B at 50 uM incubated for 30 mins in presence of [3H]GGPP by scintillation counting assay relative to control
[2] = species: Rattus norvegicus; assay: Inhibition of rat recombinant geranylgeranyltransferase type I expressed in Escherichia coli assessed as residual enzyme activity for geranylgeranylation of RhoA at 50 uM incubated for 30 mins in presence of [3H]GGPP by scintillation counting assay relative to control

Compound | Activity [1] | Activity [2]
Cc1ccc(S(=O)(=O)N2C[C@@H](C(=O)O)[C@H](Sc3ccc(Cl)cc3)C[C@H]2c2ccccc2)cc1 | 64.1% | 14.2%
Cc1ccc([C@@H]2CC=C(C(=O)O)[C@H](c3cccc(Br)c3)N2S(=O)(=O)c2ccc(Cl)cc2)cc1 | 8.4 to 19.9% | 7.4%
COc1ccc([C@@H]2C[C@@H](Sc3ccc(Cl)cc3)[C@H](C(=O)O)CN2S(=O)(=O)c2ccc(Cl)cc2)cc1 | 73.2% | 8.6%
Cc1ccc([C@@H]2C[C@@H](SCc3ccc(Cl)cc3)[C@H](C(=O)O)CN2S(=O)(=O)c2ccccc2)cc1 | 22 to 29.6% | 17.2%
COc1ccc([C@@H]2C[C@@H](SCc3ccccc3)[C@H](C(=O)O)CN2S(=O)(=O)c2ccc(Cl)cc2)cc1 | 25.9 to 28.7% | 11.9%
Cc1ccc(S(=O)(=O)N2C[C@@H](C(=O)O)[C@H](SCc3ccccc3)C[C@H]2c2cccc(Cl)c2)cc1 | 11.5 to 18.1% | 8.3%
Cc1ccc(S(=O)(=O)N2[C@@H](c3cccc(Cl)c3)C(C(=O)O)=CC[C@H]2c2cccc(Br)c2)cc1 | 9.8 to 24.4% | 7.9%
Cc1ccc(S(=O)(=O)N2C[C@@H](C(=O)O)[C@H](SCc3ccc(Cl)cc3)C[C@H]2c2cccc(Cl)c2)cc1 | 11.9 to 13.5% | 6%
Cc1ccccc1S(=O)(=O)N1[C@@H](c2ccccc2F)C(C(=O)O)=CC[C@H]1c1ccc(Cl)cc1 | 8.4% | 4.1%
Cc1ccccc1S(=O)(=O)N1C[C@@H](C(=O)O)[C@H](SCc2ccccc2)C[C@H]1c1ccc(Cl)cc1 | 8.7 to 12% | 7.8%
CCOc1ccc([C@@H]2C[C@@H](SCCc3ccccc3)[C@H](C(=O)O)CN2S(=O)(=O)c2ccc(C)cc2)cc1 | 24.6 to 37.2% | 14.5%
Cc1ccc(S(=O)(=O)N2C[C@@H](C(=O)O)[C@H](SCc3ccc(Cl)cc3)C[C@H]2c2ccccc2)cc1 | 23.7 to 24.8% | 14.2%
Cc1ccc(S(=O)(=O)N2C[C@@H](C(=O)O)[C@H](SCCc3ccccc3)C[C@H]2c2cccc(Cl)c2)cc1 | 4.8 to 9.2% | 3.7%
Cc1ccc(S(=O)(=O)N2[C@@H](c3cccc(Cl)c3)C(C(=O)O)=CC[C@H]2c2cccc(Cl)c2)cc1 | 43.7 to 43.8% | 6%
Cc1ccc(S(=O)(=O)N2C[C@@H](C(=O)O)[C@H](SCc3ccccc3)C[C@H]2c2ccccc2F)cc1 | 12.8 to 15.7% | 8.1%
Cc1ccc(S(=O)(=O)N2C[C@@H](C(=O)O)[C@H](Sc3ccccc3)C[C@H]2c2ccccc2F)cc1 | 51% | 8.1%
Cc1ccc(S(=O)(=O)N2[C@@H](c3ccccc3)C(C(=O)O)=CC[C@H]2c2cccc(Br)c2)cc1 | 35.2% | 19.4%
Cc1ccc([C@@H]2C[C@@H](Sc3ccc(Cl)cc3)[C@H](C(=O)O)CN2S(=O)(=O)c2ccc(Cl)cc2)cc1 | 42.3% | 3.3%
Cc1ccc(S(=O)(=O)N2C[C@@H](C(=O)O)[C@H](SCc3ccccc3)C[C@H]2c2cccc(Br)c2)cc1 | 5.5 to 7.6% | 2.9%
Cc1ccc(S(=O)(=O)N2[C@@H](c3ccc(Br)cc3)C(C(=O)O)=CC[C@H]2c2ccc(Cl)c(Cl)c2)cc1 | 18.7 to 22.8% | 11.3%
Cc1ccc(S(=O)(=O)N2[C@@H](c3cccc(C)c3)C(C(=O)O)=CC[C@H]2c2ccc(Cl)c(Cl)c2)cc1 | 12.6 to 20.2% | 10.3%
Cc1ccc(S(=O)(=O)N2[C@@H](c3cccc(Br)c3)C(C(=O)O)=CC[C@H]2c2ccc(Cl)c(Cl)c2)cc1 | 8.6 to 24.9% | 3.2%
Cc1ccccc1S(=O)(=O)N1[C@@H](c2ccccc2)C(C(=O)O)=CC[C@H]1c1ccc(Cl)cc1 | 13.4% | 5.8%
Cc1ccc(S(=O)(=O)N2C[C@@H](C(=O)O)[C@H](Sc3ccccc3)C[C@H]2c2cccc(Cl)c2)cc1 | 87.5% | 8.3%
COc1ccc([C@@H]2C[C@@H](Sc3ccc(Cl)cc3)[C@H](C(=O)O)CN2S(=O)(=O)c2ccccc2)cc1 | 88.8% | 13.4%

Second part, the compound after the results:

Activity [1] | Activity [2] | Compound
15.1 to 20.8% | 5.9% | Cc1ccc(S(=O)(=O)N2C[C@@H](C(=O)O)[C@H](SCCc3ccccc3)C[C@H]2c2ccc(Cl)cc2)cc1
20.2% | 7.8% | CCC[C@@H]1[C@@H](SCCC(=O)OC(C)(C)C)[C@@H](C(=O)O)[C@H](c2cccc(F)c2)N1S(=O)(=O)c1ccc(C)cc1
31.5% | 7.1% | CCCC[C@@H]1[C@@H](Sc2ccc(C)cc2)[C@@H](C(=O)O)[C@H](c2cccc(F)c2)N1S(=O)(=O)c1ccc(C)cc1
25.5% | 6.5% | CC[C@@H]1[C@@H](Sc2ccc(OC)cc2)[C@@H](C(=O)O)[C@H](c2cccc(Cl)c2)N1S(=O)(=O)c1ccc(C)cc1
9.8% | 7.5% | C=CCS[C@H]1[C@@H](C(=O)O)[C@H](c2ccc(Br)cc2)N(S(=O)(=O)c2ccc(C)cc2)[C@@H]1CCC
22.6 to 35.4% | 12.4% | Cc1ccc([C@@H]2C[C@@H](SCCc3ccccc3)[C@H](C(=O)O)CN2S(=O)(=O)c2ccc(C)cc2)cc1
23.5% | 7.1% | CCCCS[C@H]1[C@@H](C(=O)O)[C@H](c2cccc(F)c2)N(S(=O)(=O)c2ccc(C)cc2)[C@@H]1CCCC
23.1% | 8.4% | C=CCS[C@H]1[C@@H](C(=O)O)[C@H](c2ccc(Cl)cc2)N(S(=O)(=O)c2ccccc2C)[C@@H]1CCCC
23.5% | 7.1% | CCCCCS[C@H]1[C@@H](C(=O)O)[C@H](c2cccc(F)c2)N(S(=O)(=O)c2ccc(C)cc2)[C@@H]1CCCC
22.4% | 4.9% | C=CCS[C@H]1[C@@H](C(=O)O)[C@H](c2ccc(Cl)cc2)N(S(=O)(=O)c2ccccc2C)[C@@H]1CC1CCCC1
48.7% | 8% | COc1ccc(S[C@H]2[C@@H](C(=O)O)[C@H](c3ccc(Cl)cc3)N(S(=O)(=O)c3ccc(Cl)cc3)[C@@H]2C(C)C)cc1
10% | 7.8% | Cc1ccccc1S(=O)(=O)N1[C@H](CC2CCCC2)[C@@H](SCCC(=O)OC(C)(C)C)[C@@H](C(=O)O)[C@@H]1c1ccc(Cl)cc1
26 to 85.1% | 10.7% | Cc1ccc(S(=O)(=O)N2C[C@@H](C(=O)O)[C@H](SCC(C)C)C[C@H]2c2ccccc2)cc1
28.4% | 8.9% | C=CCS[C@H]1[C@@H](C(=O)O)[C@H](c2ccc(Cl)cc2)N(S(=O)(=O)c2ccccc2C)[C@@H]1CCC
8.5 to 16.7% | -1.2% | CCCCS[C@@H]1C[C@@H](c2cccc(Cl)c2)N(S(=O)(=O)c2ccc(C)cc2)C[C@H]1C(=O)O
11.4 to 18.8% | 1.3% | Cc1ccc(S(=O)(=O)N2C[C@@H](C(=O)O)[C@H](SCC(C)C)C[C@H]2c2cccc(Br)c2)cc1
2.3 to 3% | 2.9% | CCc1ccc([C@@H]2C[C@@H](SCCc3ccccc3)[C@H](C(=O)O)CN2S(=O)(=O)c2ccc(C)cc2)cc1
3.1 to 3.7% | 2.6% | CCOc1ccc([C@@H]2C[C@@H](SCc3ccc(Cl)cc3)[C@H](C(=O)O)CN2S(=O)(=O)c2ccc(C)cc2)cc1
31.7% | 6.1% | C=CCS[C@H]1[C@@H](C(=O)O)[C@H](c2ccc(C(C)C)cc2)N(S(=O)(=O)c2ccc(C)cc2)[C@@H]1CC1CCCC1
